# Results from article PMC11476552, “Synthesis and Preliminary Studies for In Vitro Biological Activity of Two New Water-Soluble Bis(thio)carbohydrazones and Their Copper(II) and Zinc(II) Complexes” (International Journal of Molecular Sciences, 2024).
# Key:
# [1] = Cu(II) complex formation equilibria, spectrophotometric titration at pH 2.5; type: physicochemical; settings: conditional formation constant, aqueous solution, pH = 2.5, T = 298.2 K
# Description: The copper(II) complexation equilibria of bis-TCH were studied by means of spectrophotometric titration of the ligand with Cu(II) in aqueous solution at pH = 2.5 and pH = 7.4. […] For this reason, in the speciation models, L identifies the ligand irrespective of its protonation state, and the charges of the complexes are omitted. […] The two bands at 237 and 318 nm, observed in the spectrum of the free ligand, decrease in absorbance upon addition of Cu(II), while the two bands at 259 and 400 nm increase.
# A plot of absorbance at 280 nm vs. Cu(II)/ligand molar ratio (Figure 3, inset) quite clearly evidenced that two equivalence points are present: one at ca. 0.75 eq. and one at ca. 1.5 eq. of metal added, corresponding to the formation of [Cu3L4] and [Cu3L2] species. […] The [Cu3L4] species could have a simple structural explanation considering some peculiar characters of bis-TCH. This ligand, in fact, adds to the coordinating possibilities of the central skeleton (ONSNO) two sulfonic groups, which are deprotonated, such that they can also behave as counteranions. Moreover, both the ligands have a great affinity for Cu(II) ions, but bis-TCH is more acidic than bis-CH, and this implies that it more stably coordinates Cu(II) already at pH 2.5. It will be seen further in the discussion that in the case of bis-CH at pH = 2.5, the [CuL] species is identified, while, at the same pH, bis-TCH is able to compete more efficiently for the Cu(II) ions in solution, and the result is [Cu3L4], a species with a higher ligand/metal ratio (Figure S19).
# The copper(II) complexation equilibria of bis-CH were studied by means of spectrophotometric titration at pH = 2.5 and 7.4. […] The best fit of the spectrophotometric data was obtained by considering the formation of [CuL] and [Cu2L] species, with log β values of 6.26(2) and 11.30(2), respectively (Table 2).
# Samples used for the study of protonation equilibria of the ligands were prepared as follows. […] For each solution, the absorption spectrum was collected in the 220–600 nm range at 298.2 K. The spectral data collection was carried out immediately after the preparation of the samples and repeated after 3 and 10 min for all the samples at different pH values to check the stability of the ligand. […]
# The logarithms of the apparent stability constants were calculated from the spectral dataset using HypSpec2014 software. […] All equilibria were studied at fixed pH, and therefore the determined log β values are logarithms of conditional formation constants. […] Speciation diagrams were calculated using the Hyss2009 software. […]
# Hs27 cells = test: Antiproliferative activity, trypan blue cell count, Hs27; type: cell-based; settings: Hs27, up to 100 µg/mL, 24-72 h
# Method: We have started to investigate the antiproliferative profile of the ligands and of the complexes C1–C4 using a normal fibroblast cell line (Hs27) and a leukaemia cell line (U937), an in vitro cell model system systematically used to validate the toxicological profile of new potential anticancer agents. For the cytotoxicity assay, we treated Hs27 and U937 cells with five different concentrations of compound, ranging from 12.5 to 100 µg/mL, for 24, 48, and 72 h.
# U937 cells (ATCC, CRL-1593.2) were obtained from the American Tissue Culture Collection (Rockville, MD, USA) and were cultured in Roswell Park Memorial Institute Medium (RPMI-1640) (Euroclone, Italy); Hs27 cells (ATCC, CRL1634) were grown in DMEM. Both media were supplemented with 10% (v/v) foetal bovine serum (Euroclone, Italy), 1% L-glutamine (2 mM) (Euroclone, Italy), and 1% penicillin (100 U/mL)/streptomycin (100 µg/mL) (Euroclone, Italy), added with 10% (v/v) foetal bovine serum (Euroclone, Italy), 1% L-glutamine (2 mM) (Euroclone, Italy), and 1% penicillin (100 U/mL)/streptomycin (100 µg/mL) (Euroclone, Italy). Flasks were maintained at 37 °C and 5% CO2 in a humidified atmosphere. […]
# The antiproliferative activity of the ligands and the complexes C1–C4 was evaluated in vitro on U937 and Hs27 cell lines. […] Values are reported as the mean of the GI50 calculated on two independent experiments.
smiles,measurement,setting,value
"COc1cc(S(=O)(=O)[O-])cc(/C=N/NC(=O)N/N=C/c2cc(S(=O)(=O)[O-])cc(OC)c2O)c1O.[Na+].[Na+] [bis-CH, Bis-(sodium 3-methoxy-5-sulfonate-salicylaldehyde)-carbohydrazone]",Log β([Cu2L]),[1],11.30(2)
same,Log β([CuL]),[1],6.26(2)
same,cytotoxic effect (in words),Hs27 cells,did not produce a reduction in cell viability
"COc1cc(S(=O)(=O)[O-])cc(/C=N/NC(=S)N/N=C/c2cc(S(=O)(=O)[O-])cc(OC)c2O)c1O.[Na+].[Na+] [bis-TCH, Bis-(sodium 3-methoxy-5-sulfonate-salicylaldehyde)-thiocarbohydrazone]",Log β([Cu3L2]),[1],26.4(1)
same,Log β([Cu3L4]),[1],38.6(1)
